Data reported in US20230150951A1, “2,5- OR 2,6-DISUBSTITUTED HYDROQUINONE DERIVATIVES WITH AT LEAST ONE CARBOXY, SULFO OR AMIDO GROUP USEFUL AS MEDICAMENTS” (OM PHARMA SA, priority 2020, published 2023).
pIC50: −log10 of the molar value.

What was measured:
Assay type in all cases: cell-based
VEGF-A = target: T1, VEGF-A (Homo sapiens, UniProt P15692); experiment: VEGF-A induced sprouting of HUVEC, spheroid-based cellular angiogenesis assay; conditions: VEGF-A 25 ng/mL preincubated with compound, 24 h, read-out: VEGF-A1 IC50
T1 construct: purchased ProQinase GmbH
T1 sequence (P15692 27-191 isoform P15692-4): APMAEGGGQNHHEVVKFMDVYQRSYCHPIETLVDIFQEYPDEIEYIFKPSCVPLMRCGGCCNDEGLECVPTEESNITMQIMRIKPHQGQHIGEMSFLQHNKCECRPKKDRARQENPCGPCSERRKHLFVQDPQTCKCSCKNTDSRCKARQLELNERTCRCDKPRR
Method: Aim of this in vitro method is to assess compounds effects on FGF-2, FGF-1, or VEGF-A induced sprouting of human umbilical vein endothelial cells (HUVEC) in the spheroid-based cellular angiogenesis assay. Before adding the growth factors to the cells, they were preincubated with the compound. Sunitinib was tested as a control (without preincubation).
IC50 values determined for the tested compounds are expressed in microM [μM] and the values for the inhibition of FGF-1, FGF2 and VEGF-A induced growth (sprouting) are listed after each compound in the examples after chemical characterization.
Sprouting test was performed on the compounds dissolved in DMSO to reach 100-fold concentrated stock solutions and dissolved in culture media. Sunitinib as reference compound was provided by ProQinase GmbH. Growth factors were purchased from rhFGF-basic (FGF-2), Peprotech, New Jersey, USA, #100-18C, Lot #0415571; rhFGF-acidic (FGF-1), Peprotech, New Jersey, USA, #100-17A, Lot #031207; hVEGF-A165 (ProQinase GmbH, Freiburg, Germany; 05.02.2010) were used for stimulation of HUVEC cells growth.
Test system: Endothelial cells from human umbilical vein (HUVEC) from pooled donors were stored frozen with 70% medium, 20% FCS, 10% DMSO at about 1×10^6 cells/ampoule. HUVEC cells, primary human umbilical vein endothelial cells (PromoCell, Heidelberg, Germany), were used after passage 3 to 4. Morphology of the cells are adherent, cobblestone-like growing as monolayer and were cultured in endothelial cell growth and basal medium (ECGM/ECBM, PromoCell). The subculture was split 1:3; every 3-5 days, seed out at ca. 1×10^4 cells/cm^2 and incubated at 37° C. with 5% CO2 with a doubling time 24-48 hours
Dilution of test compounds: 100× concentrated solutions (concerning to the final assay concentrations) of each test compound were prepared with the appropriate solvent (in DMSO or in water). These 100×compound solutions were further diluted in endothelial cell growth and basal medium (ECBM) 1:7.5 to get a 13.33× concentrated solution. 75 μl of the 13.33×solution was subsequently mixed with 25 μl of 40× concentrated stimulus (solved in ECBM), resulting in a 10×concentrated stimulus/compound mixture. This mixture (100 μl) was incubated for 30 min at 37° C. and then added to 900 μl gel, containing the HUVEC spheroids (resulting in the final assay concentration).
Test method: the experiments were pursued in modification of the originally published protocol (Korff and Augustin: J Cell Sci 112: 3249-58, 1999). In brief, spheroids were prepared as described (Korff and Augustin: J Cell Biol 143: 1341-52, 1998) by pipetting 400 HUVEC in a hanging drop on plastic dishes to allow overnight spheroid aggregation. 50 HUVEC spheroids were then seeded in 0.9 ml of a collagen gel and pipetted into individual wells of a 24 well plate to allow polymerization. The test compounds were preincubated with the growth factors (FGF-1, FGF-2 or VEGF-A final concentration 25 ng/mL) in a 10-fold concentrated solution and subsequently, 100 μl of this solution was added on top of the polymerized gel. All compounds were diluted in solvent (DMSO or water) as 100×stocks first (which means 100×stocks of each final assay concentration were prepared in solvent). Subsequently, these stocks were further diluted in medium (resulting in the 13.33×stocks of each final assay concentration) with final concentrations tested: 100, 50, 25, 12.5, 6.25, 3.13 and 1.56×10^−6 M). Plates were incubated at 37° C. for 24 hours and fixed by adding 4% PFA (Roth, Karlsruhe, Germany).
Quantification of growth factor inhibition: sprouting intensity of HUVEC spheroids treated with the growth factor and the inhibitors were quantitated by an image analysis system determining the cumulative sprout length per spheroid (CSL).

FGF-2 = target: T2, FGF-2 (Homo sapiens, UniProt P09038); experiment: FGF-2 induced sprouting of HUVEC, spheroid-based cellular angiogenesis assay; conditions: FGF-2 25 ng/mL preincubated with compound, 24 h
T2 construct: purchased Peprotech 100-18C
How it was run: (§1)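 Compound (final 100 down to 1.56×10^−6 M) was mixed with growth factor (final 25 ng/mL) for 30 min at 37°C, then added onto collagen-embedded 400-cell HUVEC spheroids.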

VEGFR-2 = target: T3, VEGFR-2 (Homo sapiens, UniProt P35968); experiment: VEGF-165 induced phosphorylation of VEGF-Receptor on HUVEC; conditions: HUVEC preincubated 60 min, VEGF165 25 ng/mL 2 min; read-out: VEGFR-Phosphorylation inhibition IC50
T3 construct: endogenous in cells; host or cells: primary HUVEC

Human neutrophils [1] = experiment: Inhibition of ROS production in human neutrophils (isoluminol chemiluminescence); conditions: Homo sapiens, Neutrophil, fMLP+TNF-α stimulated PMN
How it was run: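 Extracellular ROS measured as isoluminol-amplified chemiluminescence following 1 μM fMLP activation on fibrinogen-coated plates, readings every 25 sec over 250 sec minus HBSS/isoluminol background. Beforehand, cells were treated with compounds at 0.1, 0.3, 1, 3 or 10 μM (30 min, 37° C) and TNF-α (20 ng/ml, 10 min); duplicate or triplicate.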

Human neutrophils [2] = experiment: Neutrophil adhesion under static conditions; conditions: fMLP-stimulated adhesion to fibrinogen; method: 40 μM and 80 μM, concentration of the value not stated
How it was run: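 Donor buffy-coat neutrophils (3×10^6/ml, PBS with Ca/Mg, 10% FCS, pH 7.2) preincubated 30 min at 37° C with 40 μM or 80 μM compound, then stimulated 1 min at 37° C with 1 nM fMLP on fibrinogen-coated glass. Adherent cells fixed and counted by computer; mean ± SD, unpaired t-test.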

FGF-1 = target: T4, FGF-1 (Homo sapiens, UniProt P05230); experiment: FGF-1 induced sprouting of HUVEC, spheroid-based cellular angiogenesis assay; conditions: FGF-1 25 ng/mL preincubated with compound, 24 h
T4 construct: purchased Peprotech 100-17A
How it was run: as §1

T3 sequence (P35968 20-1356): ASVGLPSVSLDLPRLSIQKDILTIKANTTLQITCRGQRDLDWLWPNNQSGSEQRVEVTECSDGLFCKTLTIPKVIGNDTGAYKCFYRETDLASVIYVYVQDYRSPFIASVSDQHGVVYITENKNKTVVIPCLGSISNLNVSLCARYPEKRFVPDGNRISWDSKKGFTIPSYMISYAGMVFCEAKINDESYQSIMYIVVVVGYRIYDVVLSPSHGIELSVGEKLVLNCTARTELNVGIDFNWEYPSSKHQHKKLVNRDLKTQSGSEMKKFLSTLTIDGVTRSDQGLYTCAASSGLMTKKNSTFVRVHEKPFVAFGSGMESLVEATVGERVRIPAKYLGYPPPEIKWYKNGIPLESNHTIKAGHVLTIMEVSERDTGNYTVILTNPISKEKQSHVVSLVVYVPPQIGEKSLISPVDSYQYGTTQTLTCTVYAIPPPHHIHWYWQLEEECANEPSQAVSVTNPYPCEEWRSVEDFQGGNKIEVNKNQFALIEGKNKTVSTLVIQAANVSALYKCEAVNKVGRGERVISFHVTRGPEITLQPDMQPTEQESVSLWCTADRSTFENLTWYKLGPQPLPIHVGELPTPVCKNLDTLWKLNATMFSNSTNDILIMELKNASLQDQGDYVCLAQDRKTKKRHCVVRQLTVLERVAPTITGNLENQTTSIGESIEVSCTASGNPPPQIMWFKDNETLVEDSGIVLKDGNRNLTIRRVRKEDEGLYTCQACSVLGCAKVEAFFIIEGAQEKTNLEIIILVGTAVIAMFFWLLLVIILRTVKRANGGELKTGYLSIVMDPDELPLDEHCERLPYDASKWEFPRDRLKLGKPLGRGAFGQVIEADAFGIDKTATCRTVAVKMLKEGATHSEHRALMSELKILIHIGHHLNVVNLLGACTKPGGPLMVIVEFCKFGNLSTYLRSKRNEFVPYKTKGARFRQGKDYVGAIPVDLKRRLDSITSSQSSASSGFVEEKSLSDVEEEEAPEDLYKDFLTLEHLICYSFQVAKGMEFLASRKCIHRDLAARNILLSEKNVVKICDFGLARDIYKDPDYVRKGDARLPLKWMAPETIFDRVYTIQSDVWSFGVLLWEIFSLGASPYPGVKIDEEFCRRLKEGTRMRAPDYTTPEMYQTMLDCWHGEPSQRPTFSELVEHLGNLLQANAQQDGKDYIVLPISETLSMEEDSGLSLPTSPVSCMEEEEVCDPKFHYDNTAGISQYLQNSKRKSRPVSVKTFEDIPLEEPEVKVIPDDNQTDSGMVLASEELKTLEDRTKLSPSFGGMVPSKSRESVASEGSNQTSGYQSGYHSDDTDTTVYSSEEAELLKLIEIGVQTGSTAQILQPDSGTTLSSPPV
T2 sequence (P09038 134-288): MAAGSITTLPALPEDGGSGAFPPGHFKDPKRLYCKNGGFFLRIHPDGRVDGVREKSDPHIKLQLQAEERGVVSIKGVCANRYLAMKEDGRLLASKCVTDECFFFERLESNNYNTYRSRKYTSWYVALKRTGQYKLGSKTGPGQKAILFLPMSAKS
T4 sequence (P05230 whole entry): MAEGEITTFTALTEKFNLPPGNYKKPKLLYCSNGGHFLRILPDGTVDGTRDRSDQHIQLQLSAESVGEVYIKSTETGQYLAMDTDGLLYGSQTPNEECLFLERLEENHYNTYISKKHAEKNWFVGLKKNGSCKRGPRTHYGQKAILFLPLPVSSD

Row | SMILES | pIC50 (VEGF-A) | pIC50 (FGF-2) | pIC50 (VEGFR-2) | inhibition at 0.3 µM (Human neutrophils [1]) [%] | Neutrophil adhesion inhibition (Human neutrophils [2]) [%] | pIC50 (FGF-1) | pIC50 (Human neutrophils [1])
1 | O=C(O)Cc1cc(O)c(C(=O)Nc2cc(C(=O)O)cc(C(=O)O)c2)cc1O [IIIa-015a, 5-(4-(carboxymethyl)-2,5-dihydroxybenzamido)isophthalic acid] | 3.69 | 3.94 | 6.05 | 78.8 | 12.13 | 4.80 | –
2 | O=C(O)c1cc(O)c(C(=O)Nc2ccc(C(=O)O)c(C(=O)O)c2)cc1O [Ia-014a, 4-(4-carboxy-2,5-dihydroxybenzamido)phthalic acid] | 4.06 | 4.70 | ≤ 4.00 | 61.3 | 9.667 | 4.70 | 6.00
3 | O=C(O)c1ccc(NC(=O)c2cc(O)cc(C(=O)O)c2O)cc1C(=O)O [IIa-014a, 4-(3-carboxy-2,5-dihydroxybenzamido)phthalic acid] | 4.04 | 4.21 | 4.75 | 73.9 | 21.5 | 4.40 | –
4 | COC(=O)c1cc(O)cc(CS(=O)(=O)Cc2cc(O)cc(C(=O)OC)c2O)c1O [IVc-059a-E2] | ≤ 3.70 | 4.03 | 5.57 | 45.7 | 50.5 | 4.11 | 5.58
5 | O=C(O)c1cc(O)c(C(=O)NCCc2ccc(O)c(O)c2)cc1O [Ia-035a-2, 4-(2-(3,4-Dihydroxyphenyl)ethylaminocarbonyl)-2,5-dihydroxybenzoic acid] | 3.96 | 4.19 | 5.00 | 58.8 | 21.5 | 5.00 | 5.96
6 | O=C(O)Cc1ccccc1NC(=O)c1cc(O)cc(C(=O)O)c1O [IIa-034a, 3-(2-(carboxymethyl)phenylaminocarbonyl)-2,5-dihydroxybenzoic acid] | 4.07 | 5.24 | ≤ 4.00 | 69.2 | 26.58 | 4.66 | –
7 | O=C(O)c1cccc(NC(=O)c2cc(O)c(C(=O)O)cc2O)c1 [Ia-002a, 4-(3-carboxyphenylaminocarbonyl)-2,5-dihydroxybenzoic acid] | 4.15 | 4.23 | 5.24 | 42.1 | 27.92 | 4.70 | 6.51
